PMC10239758 (European journal of medicinal chemistry, 2023)
≈ marks a conversion by molar mass, not a printed value.

Legend:
Mtb TF274 = experiment: microbe, parasite or virus in culture; type: cell-based; details: Mycobacterium tuberculosis, TF274, read-out: Mtb MIC TF274/ XDR
mutant Mtb strain IAR2 = type: cell-based, Mycobacterium tuberculosis
Mtb KZN494 = experiment: microbe, parasite or virus in culture; type: cell-based; details: Mycobacterium tuberculosis, KZN494, read-out: Mtb MIC KZN494/ MDR

Compound: c1ccc(-c2ccc(-c3ccnc(CN4CCC5(CCCC5)CC4)c3)cc2)cc1 [Compound 62, 8-((4-([1,1'-Biphenyl]-4-yl)pyridin-2-yl)methyl)-8-azaspiro[4.5]decane]
- MIC (Mtb TF274): 0.0039 µg/mL (≈ 0.0102 µM)
- MIC IAR2 (mutant Mtb strain IAR2): 1 µg/mL (≈ 2.61 µM)
- MIC (Mtb KZN494): 0.0156 to 0.0313 µg/mL (≈ 0.0408 to 0.0818 µM)
